Results on 26 compounds are retold here after patent US9133168B2, “Pyrimidine derivatives, preparation thereof, and pharmaceutical use thereof as akt(pkb) phosphorylation inhibitors” (SANOFI, priority 2010, dated 2015).

SMILES strings stand for the structures. pIC50: −log10 of the molar value.

Broadly, the pIC50 is −log10 of the IC50, conventionally taken in molar units. Higher therefore signals a small IC50.

One assay relates to AKT protein phosphorylated on serine 473 (P-AKT-S473) in PC3 human prostate carcinoma cells. Description: pAKT expression in PC3 human prostate carcinoma cells, MSD Multi-spot Biomarker detection (Test A). The following applies: Homo sapiens, PC-3, PC3 cells, 1 to 2 h incubation, P-AKT-S473, absolute IC50, mean of two independent experiments. The class given is cell-based. As for the experimental part: The inhibitory activity of the molecules on AKT phosphorylation is measured using the MSD Multi-spot Biomarker detection technique from Meso Scale Discovery also described below. […] The primary antibody specific for […]) is coated on to an electrode in each well of the 96-well plates of the MSD kit: after the addition of a protein lysate to each well, the signal is visualized by adding a secondary detection antibody labeled with an electrochemiluminescent compound. The procedure followed is the one described in the kit. […] On day 2, the cells are incubated in the presence or absence of the test products for 1 to 2 h at 37° C. in the presence of 5% CO2. The molecules, diluted in dimethyl sulfoxide (DMSO Sigma #D2650), are added from a 20-times concentrated stock solution, the final percentage of DMSO being 0.1%. The molecules are tested either at a single concentration of less than or equal to 10 μM, or at increasing concentrations in a range that can extend from less than 1 nM to 10 μM. After this incubation, the cells are lysed for the preparation of the proteins. […] At this stage, the plates containing the lysates can be frozen at -20° C. or at -80° C. The wells of the 96 well plates of the MSD kit are saturated for 1 h at ambient temperature with the blocking solution of the MSD kit. Four washes are carried out with 150 μl of Tris Wash Buffer of the MSD kit. The lysates previously prepared are transferred into the 96-well multi-spot plates of the MSD kit and incubated for 1 h at ambient temperature, with shaking. Four washes are carried out with 150 μl of Tris Wash Buffer of the MSD kit. 25 μl of the MSD sulfo-tag detection antibody solution are added to the wells and incubated for 1 h at ambient temperature, with shaking. Four washes are carried out with 150 μl of Tris Wash Buffer of the MSD kit. 150 μl of Read Buffer of the MSD kit are added to the wells and the plates are read immediately on the S12400 instrument from Meso Scale Discovery. The instrument measures a signal for each well. Wells without cells and containing the lysis buffer serve to determine the background noise that will be subtracted from all the measurements (min). The wells containing cells in the absence of product and in the presence of 0.1% DMSO are considered to be the 100% signal (max). The percentage inhibition is calculated for each concentration of product tested, according to the following formula: (1-((test-min)/(max-min)))×100. […] Two independent experiments make it possible to calculate the mean of the IC50 values.
The compound `CC1Cc2c(F)cccc2N1C(=O)Cc1nc(N2CCOCC2)cc(=O)n1C` (single isomer, unassigned; (-)) [Example 29c, (−)-2-{2-[4-fluoro-2-methyl-2,3-dihydro-1H-indol-1-yl]-2-oxoethyl}-3-methyl-6-(morpholin-4-yl)pyrimidin-4(3H)-one] gave a pIC50 of 7.28.
Same read-out and setting: the result for `CC(C)C1Cc2ccccc2N1C(=O)Cc1nc(N2CCOCC2)cc(=O)[nH]1` (single isomer, unassigned; (-)) [Example 39c, (−)-2-[2-(2-isopropyl-2,3-dihydroindol-1-yl)-2-oxoethyl]-6-morpholin-4-yl-3H-pyrimidin-4-one] reads 8.40; that for `CC(F)(C(=O)N1CCc2c(F)cccc21)c1nc(N2CCOCC2)cc(=O)[nH]1` (single isomer, unassigned; (-)) [Example 44c, (−)-2-[2-fluoro-1-(4-fluoro-2,3-dihydro-1H-indol-1-yl)-1-oxopropan-2-yl]-6-(morpholin-4-yl)pyrimidin-4(3H)-one], 6.85; that for `O=C(Cc1nc(N2CCOCC2)c(F)c(=O)[nH]1)N1CCc2c(F)cccc21` [Example 1a, 5-fluoro-2-[2-(4-fluoro-2,3-dihydro-1H-indol-1-yl)-2-oxoethyl]-6-(morpholin-4-yl)pyrimidin-4(3H)-one], 7.66.
The compound `O=C(Cc1nc(N2CCOCC2)cc(=O)[nH]1)N1CC2(CC2)c2ccccc21` [Example 1d, 6-(morpholin-4-yl)-2-[2-oxo-2-(spiro[cyclopropan-1,3′-indol]-1′(2′H)-yl)ethyl]pyrimidin-4(3H)-one] had a negative-log IC50 (pIC50) of 7.59.
Regarding `C[C@H]1Cc2ccccc2N1C(=O)Cc1nc(N2CCOCC2)cc(=S)[nH]1` [Example 1e, 1-((S)-2-methyl-2,3-dihydroindol-1-yl)-2-(4-morpholin-4-yl-6-thioxo-1,6-dihydropyrimidin-2-yl)ethanone], the pIC50 is 7.66.
`CC(C(=O)N1CCc2c(F)cccc21)c1nc(N2CCOCC2)c(F)c(=O)n1C` (centres unmarked) [Example 2a, 5-fluoro-2-[1-(4-fluoro-2,3-dihydro-1H-indol-1-yl)-1-oxopropan-2-yl]-3-methyl-6-(morpholin-4-yl)pyrimidin-4(3H)-one] showed a pIC50 of 6.03. Against the preceding compound, the pIC50 is 1.63 log units lower.
Still for that read-out and setting: the result for `O=C(Cc1nc(N2CCOCC2)cc(=O)[nH]1)N1CCc2c(-c3ccccc3)cccc21` [Example 2d, 6-(morpholin-4-yl)-2-[2-oxo-2-(4-phenyl-2,3-dihydro-1H-indol-1-yl)ethyl]pyrimidin-4(3H)-one] reads 7.62; that for `C[C@H]1Cc2ccccc2N1C(=S)Cc1nc(N2CCOCC2)cc(=S)[nH]1` [Example 2e, 2-[2-((S)-2-methyl-2,3-dihydroindol-1-yl)-2-thioxoethyl]-6-morpholin-4-yl-3H-pyrimidine-4-thione], 8.40.
Same read-out and setting: in the case of `Cn1c(CC(=O)N2CCc3c(F)cccc32)nc(N2CCOCC2)c(F)c1=O` [Example 3a, 5-fluoro-2-[2-(4-fluoro-2,3-dihydro-1H-indol-1-yl)-2-oxoethyl]-3-methyl-6-(morpholin-4-yl)pyrimidin-4(3H)-one] it was 6.80; in that of `O=C(Cc1nc(N2CCOCC2)cc(=O)[nH]1)N1CCc2c(OC(F)(F)F)cccc21` [Example 3d, 6-(morpholin-4-yl)-2-{2-oxo-2-[4-(trifluoromethoxy)-2,3-dihydro-1H-indol-1-yl]ethyl}pyrimidin-4(3H)-one], 7.27.
As to `C[C@@H]1Cc2ccccc2N1C(=O)Cc1nc(N2CCOCC2)cc(=S)[nH]1` [Example 3e, 1-((R)-2-methyl-2,3-dihydroindol-1-yl)-2-(4-morpholin-4-yl-6-thioxo-1,6-dihydropyrimidin-2-yl)ethanone], the pIC50 was 8.10.
Still for that read-out and setting: the result for `C[C@@H]1Cc2ccccc2N1C(=O)Cc1nc(N2CCOCC2)c(F)c(=O)[nH]1` [Example 4a, 5-fluoro-2-{2-[(2R)-2-methyl-2,3-dihydro-1H-indol-1-yl]-2-oxoethyl}-6-(morpholin-4-yl)pyrimidin-4(3H)-one] reads 6.30; that for `Cn1c(CC(=O)N2CC(C)(C)c3c(Cl)cccc32)nc(N2CCOCC2)cc1=O` [Example 4c, 2-[2-(4-chloro-3,3-dimethyl-2,3-dihydro-1H-indol-1-yl)-2-oxoethyl]-3-methyl-6-(morpholin-4-yl)pyrimidin-4(3H)-one], 7.46.

The same assay, now with this note: PC3 cells, 1 to 2 h incubation, P-AKT-S473, absolute IC50, mean of two independent experiments.
`O=C(Cc1nc(N2CCOCC2)cc(=O)[nH]1)N1c2ccccc2CC1c1ccc(F)cc1` (single isomer, unassigned; (-)) [Example 28d, (−)-2-{2-[2-(4-fluorophenyl)-2,3-dihydro-1H-indol-1-yl]-2-oxoethyl}-6-(morpholin-4-yl)pyrimidin-4(3H)-one]: the pIC50 is 8.70.
Still for that read-out and setting: the result for `CC1Cc2c(OC(F)F)cccc2N1C(=O)Cc1nc(N2CCOCC2)cc(=O)[nH]1` (single isomer, unassigned; (-)) [Example 30d, (−)-2-{2-[4-(difluoromethoxy)-2-methyl-2,3-dihydro-1H-indol-1-yl]-2-oxoethyl}-6-(morpholin-4-yl)pyrimidin-4(3H)-one] reads 8.10.
On the same count and under the same terms, in the case of `CC1Cc2c(Br)cccc2N1C(=O)Cc1nc(N2CCOCC2)cc(=O)n1C` (single isomer, unassigned; (-)) [Example 32c, (−)-2-{2-[4-bromo-2-methyl-2,3-dihydro-1H-indol-1-yl]-2-oxoethyl}-3-methyl-6-(morpholin-4-yl)pyrimidin-4(3H)-one] it was 7.85.
Same read-out and setting: in the case of `CC1Cc2c(OC(F)F)cccc2N1C(=O)Cc1nc(N2CCOCC2)cc(=O)n1C` (single isomer, unassigned; (-)) [Example 32d, (−)-2-{2-[4-(difluoromethoxy)-2-methyl-2,3-dihydro-1H-indol-1-yl]-2-oxoethyl}-3-methyl-6-(morpholin-4-yl)pyrimidin-4(3H)-one] it was 7.22; in that of `CC1Cc2c(Cl)cccc2N1C(=O)Cc1nc(N2CCOCC2)cc(=O)n1C` (single isomer, unassigned; (-)) [Example 34c, (−)-2-{2-[4-chloro-2-methyl-2,3-dihydro-1H-indol-1-yl]-2-oxoethyl}-3-methyl-6-(morpholin-4-yl)pyrimidin-4(3H)-one], 6.62; in that of `O=C(Cc1nc(N2CCOCC2)cc(=O)[nH]1)N1c2ccccc2CC1C1CC1` (single isomer, unassigned; (-)) [Example 35d, (−)-2-[2-(2-cyclopropyl-2,3-dihydroindol-1-yl)-2-oxoethyl]-6-morpholin-4-yl-3H-pyrimidin-4-one], 8.30.
Compound `CC1Cc2c(cccc2C(F)(F)F)N1C(=O)Cc1nc(N2CCOCC2)cc(=O)[nH]1` (single isomer, unassigned; (-)) [Example 37d, (−)-2-{2-[2-methyl-4-(trifluoromethyl)-2,3-dihydro-1H-indol-1-yl]-2-oxoethyl}-6-(morpholin-4-yl)pyrimidin-4(3H)-one] had a pIC50 of 8.70.
Still for that read-out and setting: the result for `CC1Cc2c(ccc(F)c2Cl)N1C(=O)Cc1nc(N2CCOCC2)cc(=O)[nH]1` (single isomer, unassigned; (-)) [Example 38c, (−)-2-{2-[4-chloro-5-fluoro-2-methyl-2,3-dihydro-1H-indol-1-yl]-2-oxoethyl}-6-(morpholin-4-yl)pyrimidin-4(3H)-one] reads 9.00; that for `CCC1Cc2ccccc2N1C(=O)Cc1nc(N2CCOCC2)cc(=O)[nH]1` (single isomer, unassigned; (-)) [Example 43c, (−)-2-[2-(2-ethyl-2,3-dihydroindol-1-yl)-2-oxoethyl]-6-morpholin-4-yl-3H-pyrimidin-4-one], 7.85; that for `CC1CN(c2cc(=O)[nH]c(CC(=O)Nc3ccc(F)cc3)n2)CCO1` (centres unmarked) [Example 1b, N-(4-fluorophenyl)-2-[4-(2-methylmorpholin-4-yl)-6-oxo-1,6-dihydropyrimidin-2-yl]acetamide], 7.59.
On the same count and under the same terms, the result for `CC1Cc2c(Cl)cccc2N1C(=O)Cc1nc(N2CCOCC2)cc(=O)[nH]1` (centres unmarked) [Example 1c, 2-[2-(4-chloro-2-methyl-2,3-dihydro-1H-indol-1-yl)-2-oxoethyl]-6-(morpholin-4-yl)pyrimidin-4(3H)-one] reads 8.30.
On the same count and under the same terms, in the case of `O=C(Cc1nc(N2CCOC(CF)C2)cc(=O)[nH]1)Nc1ccc(F)cc1` (centres unmarked) [Example 3b, 2-[4-(2-fluoromethylmorpholin-4-yl)-6-oxo-1,6-dihydropyrimidin-2-yl]-N-(4-fluorophenyl)acetamide] it was 6.57.
